Experiment: photoluminescence quantum yield (fraction); solvent given as SMILES

Molecule `C1=C(c2ccccc2)B(c2ccccc2)Nc2c1ccc1ccccc21` has a photoluminescence quantum yield (in C1CCCCC1) of 0.51.

Work on `COc1ccc(-c2csc(/C(C#N)=C\Nc3ccc(C#N)cc3)n2)cc1` yielded a photoluminescence quantum yield (in CC#N) of 0.001, a photoluminescence quantum yield (in CCO) of 0.001 and a photoluminescence quantum yield (in CN(C)C=O) of 0.003. The photoluminescence quantum yield (in Cc1ccccc1) was 0.003 and the photoluminescence quantum yield (in ClCCl) was 0.001.

`O=P1(c2ccccc2)C2=C(c3ccccc31)S(=O)(=O)c1ccccc12` (stereo not given) showed a photoluminescence quantum yield (in ClCCl) of 0.98.

`CC(=O)c1ccc(-c2ccc3c(c2)C(=O)c2cc(-c4ccc(C(C)=O)cc4)ccc2-3)cc1` gave a photoluminescence quantum yield (in C1CCOC1) of 0.03.

With `COc1ccc2c(C#N)cc3ccc4cc(C#N)c5ccc(OC)cc5c4c3c2c1` the photoluminescence quantum yield (in ClC(Cl)Cl) was 0.1.

`CC[N+]1(CC)CN2C(=N1)C(C(=O)O)=Cc1ccccc12` showed a photoluminescence quantum yield (in CN(C)C=O) of 0.006 and a photoluminescence quantum yield (in O) of 0.531.

`COC(=O)c1cc(=O)n(C)c2cc(-c3ccccc3N(C)C)sc12` showed a photoluminescence quantum yield (in ClCCl) of 0.17.

Work on `CC(C)(C)c1ccc(-c2c(-c3ccc(-n4c5ccccc5c5ccccc54)cc3)c(C#N)c(-c3ccc(-n4c5ccccc5c5ccccc54)cc3)c(-c3ccc(C(C)(C)C)cc3)c2-c2ccc(C(C)(C)C)cc2)cc1` yielded a photoluminescence quantum yield (in C1CCOC1) of 0.803.

Molecule `C(=C\c1nc2c(c(N3CCOCC3)n1)CCCC2)/c1ccccc1` has a photoluminescence quantum yield (in ClCCl) of 0.023.

In the case of `N#Cc1cc2ccc(O)cc2oc1=N`, the photoluminescence quantum yield (in C1CCOC1) is reported as 0.0262, the photoluminescence quantum yield (in CC#N) is reported as 0.0086 and the photoluminescence quantum yield (in CCOC(C)=O) is reported as 0.072. It also gave a photoluminescence quantum yield (in CS(C)=O) of 0.0022 and a photoluminescence quantum yield (in ClC(Cl)Cl) of 0.0342.

Molecule `CC[N+]1(CC)CN2C(=N1)C(C(=O)[O-])=Cc1ccccc12` has a photoluminescence quantum yield (in CN(C)C=O) of 0.05 and a photoluminescence quantum yield (in O) of 0.736.

In the case of `COc1ccc2c(c1)CCC1=C(C#Cc3ccc(Cl)cc3)O[B-](F)(F)[O+]=C12`, the photoluminescence quantum yield (in ClCCl) is reported as 0.72.

Work on `CCCCCCn1c2ccccc2c2cc(-c3ccc(-c4cc(-c5ccccn5)nc(-c5ccccn5)c4)cc3)ccc21` yielded a photoluminescence quantum yield (in ClCCl) of 0.73.

In the case of `Cc1c(COC(=O)Cc2c[nH]c3ccccc23)n2c(OCC(=O)Cc3c[nH]c4ccccc34)c(C)c(=O)n2c1=O`, the photoluminescence quantum yield (in CCO) is reported as 0.715.

For `c1ccc(-c2nc(-c3ccc(N4c5ccccc5Sc5ccccc54)cc3)nn2-c2ccc(N3c4ccccc4Sc4ccccc43)cc2)nc1`, the photoluminescence quantum yield (in ClCCl) was 0.0129.

For `c1ccc(-c2ccc(-c3ccc(N(c4ccccc4)c4ccccc4)cc3)c3nsnc23)cc1`, the photoluminescence quantum yield (in C1CCOC1) was 0.105, the photoluminescence quantum yield (in CC(C)=O) was 0.01 and the photoluminescence quantum yield (in CCCCCC) was 0.492. For the same molecule, the photoluminescence quantum yield (in CCOCC) was 0.201.

With `c1ccc(-n2nc(-c3ccc(-c4ccc5c(c4)C(c4ccccc4)(c4ccccc4)c4ccccc4-5)cc3)nc2-c2ccccn2)cc1` the photoluminescence quantum yield (in ClCCl) was 0.158.

For `O=S1(=O)c2ccccc2C2(c3cc(-c4ccc(-n5c6ccccc6c6ccccc65)cc4)ccc3-c3ccc(-c4ccc(-n5c6ccccc6c6ccccc65)cc4)cc32)c2ccccc21`, the photoluminescence quantum yield (in ClCCl) was 0.81 and the photoluminescence quantum yield (in c1cc(-n2c3ccccc3c3ccccc32)cc(-n2c3ccccc3c3ccccc32)c1) was 0.86.

For `C(=C\c1ccc(-c2nc3c4cccnc4c4ncccc4c3[nH]2)cc1)/c1ccncc1`, the photoluminescence quantum yield (in C1CCOC1) was 0.54, the photoluminescence quantum yield (in CC#N) was 0.32 and the photoluminescence quantum yield (in CO) was 0.19. It also gave a photoluminescence quantum yield (in ClCCl) of 0.48.

`COC(=O)c1ccc2ccc3cccc4ccc1c2c34` gave a photoluminescence quantum yield (in C1CCOC1) of 0.68, a photoluminescence quantum yield (in CC#N) of 0.79 and a photoluminescence quantum yield (in CCCCCC) of 0.63. It also gave a photoluminescence quantum yield (in CCO) of 0.81, a photoluminescence quantum yield (in CN(C)C=O) of 0.74 and a photoluminescence quantum yield (in CO) of 0.69. The photoluminescence quantum yield (in Cc1ccccc1) was 0.76 and the photoluminescence quantum yield (in ClCCl) was 0.56.

`CC(=O)Nc1ccc(C2=C/C(=C\c3ccc([N+](=O)[O-])cc3)C(=O)O2)cc1` showed a photoluminescence quantum yield (in C1COCCO1) of 0.043.

`CCCCCN(c1ccccc1)c1ccc2c(c1)C(CC)(CC)c1cc(/C=C/c3ccc(/C=C(\C#N)C(=O)O)s3)ccc1-2` gave a photoluminescence quantum yield (in C1CCOC1) of 0.405, a photoluminescence quantum yield (in C1COCCO1) of 0.969 and a photoluminescence quantum yield (in CC#N) of 0.025. It also gave a photoluminescence quantum yield (in CC(C)=O) of 0.223, a photoluminescence quantum yield (in CCOC(C)=O) of 0.801 and a photoluminescence quantum yield (in CN(C)C=O) of 0.651. The photoluminescence quantum yield (in CS(C)=O) was 0.622 and the photoluminescence quantum yield (in ClCCl) was 0.005.

Molecule `CCCOc1ccc(/C=C/C=C/C=C/c2ccc([N+](=O)[O-])cc2)cc1` has a photoluminescence quantum yield (in CC1CCCCC1) of 0.25, a photoluminescence quantum yield (in CC#N) of 0.011 and a photoluminescence quantum yield (in Cc1ccccc1) of 0.54. It also gave a photoluminescence quantum yield (in ClCCl) of 0.06.

`C[Si]1(C)O[Si](C)(C)c2cc3c(-c4ccc(F)cc4)c4ccccc4nc3cc21` gave a photoluminescence quantum yield (in ClCCl) of 0.39.

In the case of `N#Cc1ccc(N)c2nonc12`, the photoluminescence quantum yield (in C1COCCO1) is reported as 0.218, the photoluminescence quantum yield (in CC#N) is reported as 0.105 and the photoluminescence quantum yield (in CCCCCC) is reported as 0.329. The photoluminescence quantum yield (in CCO) was 0.059, the photoluminescence quantum yield (in Cc1ccccc1) was 0.304 and the photoluminescence quantum yield (in ClCCl) was 0.195. The photoluminescence quantum yield (in O) was 0.002.

— the Deep4Chem optical property database
